Reference: paper PMC9571264 (Molecules, 2022)

Assays:
[1] = system: caspases 3/7 in HepG2 cells; assay: Caspase 3/7 green flow cytometry assay, HepG2; type: cell-based, human; details: HepG2, 48 h; untreated cells 1.32%
Text: Apoptosis is a form of cell death programmed by the family of cysteine protease. In response to the various cell death stimuli, a large irreversible proteolytic cascade is triggered and subsequently generated. The effector caspase activity has been evaluated to determine the apoptotic pathway initiated by the tested compounds using the “Cell Event™ Caspase 3/7 Green Detection kit”.
(§1) (See supplementary information for the detailed methodology of flow cytometric analyses, including “FITC/Annexin-V-FITC/PI differential apoptosis/necrosis”, “DNA content-flow cytometry aided cell cycle”, and “Caspase 3/7 green flow cytometry”).
Supplementary materials for detailed methodology
2.2.2.1. Flow cytometric analysis
2.2.2.1.1. FITC/Annexin-V-FITC/PI Differential Apoptosis/Necrosis Assessment Apoptosis and necrosis cell populations are determined using Annexin V-FITC apoptosis detection kit (Abcam Inc., Cambridge Science Park, Cambridge, UK) coupled with 2 fluorescent channels flowcytometry. […] After staining, cells are injected via ACEA Novocyte™ flowcytometer (ACEA Biosciences Inc., San Diego, CA, USA) and analyzed for FITC and PI fluorescent signals using FL1 and FL2 signal detector, respectively (λex/em 488/530 nm for FITC and λex/em 535/617 nm for PI). […]
concentration was measured. […]

Leukemia Cancer HL60 = assay: MTT cytotoxicity assay, HL60; type: cell-based; details: Homo sapiens, HL-60, 48 h, read-out: IC50 (µM) ± SEM, Leukemia Cancer HL60
Protocol: Cytotoxic activities of the synthesized derivatives were screened against leukemia (HL60), liver (HepG2), breast (MCF-7), and lung (A549) cancer cell lines and non-cancerous THLE2 and WISH cells at different concentrations [0.01–100 µM] for 48 h using the MTT assay (Table 1).
Human promyelocytic leukemia ”HL-60”, human hepatocellular carcinoma “HepG2”, human breast cancer “MCF-7”, human lung cancer “A549” cell lines, and two normal cell lines, THLE-2 as normal adult liver epithelial cells and WISH as normal epithelial cells, were obtained from American Type Culture Collection “Rockville, MD, USA”.
According to the manufacturer’s protocol, the cells were seeded in 96-well plates at a concentration of 5 × 10^4 cells per well (200 µL). Different concentrations of the tested compounds were used to test the cytotoxicity. […] A non-linear regression of curve fit was used to calculate the IC50.

HepG2 cancer cells = assay: DNA content-flow cytometry cell-cycle analysis, HepG2; type: cell-based, human; details: HepG2, IC50 = 13.14 μM, 48 h
Protocol: as §1
Supplementary materials for detailed methodology […]
2.2.2.1.2. DNA Content-Flow Cytometry Aided Cell Cycle Analysis
After treatment with test compounds for 48 h, cells (10^5 cells) are collected by trypsinization and washed twice with ice-cold PBS (pH 7.4). Cells are re-suspended in two milliliters of 60% ice-cold ethanol and incubated at 4 °C for 1 h for fixation. Fixed cells are washed twice again with PBS (pH 7.4) and re-suspended in 1 mL of PBS containing 50 μg/mL RNAase A and 10 μg/mL propidium iodide (PI). After 20 min of incubation in dark at 37 C, cells are analyzed for DNA contents using flow cytometry analysis using FL2 (λex/em 535/617 nm) signal detector (ACEA Novocyte™ flowcytometer, ACEA Biosciences Inc., San Diego, CA, USA). For each sample, 12,000 events are acquired. Cell cycle distribution is calculated using ACEA NovoExpress™ software (ACEA Biosciences Inc., San Diego, CA, USA).
2.2.2.1.3. Caspase- 3/7 green flow cytometry assay
The ability of compounds 4 and 9 to induce the enzymatic activities of caspase 3/7 in HL60 and HepG2 respectively were assayed using caspase 3/7 green flow cytometry assay method. Briefly, control and the tested compounds treated cells (2.5x10^5/mL) were rinsed with ice cold PBS, cell lysates were prepared and subsequently protein

For `Cc1c(Br)c(=O)oc2c(Br)c(OC(=O)/C=C/c3ccccc3)c(Br)cc12` [Compound 8b, (2E)-3,6,8-Tribromo-4-methyl-2-oxo-2H-chromen-7-yl Cinnamate], the “Apoptotic cells due to active caspases 3/7” value [1] was 6.09%, the IC50 (Leukemia Cancer HL60) was 69 ± 2.14 µM and the pre-G1 cell population (HepG2 cancer cells; control 1.71%) was 12.56%. It also gave a G2/M cell population (HepG2 cancer cells; control 12.34%) of 26.05% and a G0/G1 cell population (HepG2 cancer cells; control 53.6%) of 42.53%.
